Experimental data from US20250092065A1, “2-(INDAZOL-5-YL)-6-(PIPERIDIN-4-YL)-1,7-NAPHTHYRIDINE DERIVATIVES AND RELATED COMPOUNDS AS MODULATORS FOR SPLICING NUCLEIC ACIDS AND FOR THE TREATMENT OF PROLIFERATIVE DISEASES” (REMIX THERAPEUTICS INC., priority 2022, published 2025).
Like-named read-outs stand apart in the source and are kept apart here.

Assays:
[1] = tested on: HTT mRNA; assay: RT-qPCR splicing assay, HTT mRNA canonical (CJ) and alternative (AJ) junction; format: cell-based, human; settings: Homo sapiens; for AC50: HTT alternative junction mRNA, read-out: HTT AJ (increase in AJ mRNA, AC50)
In short: (§1)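 Canonical and alternative-exon junction isoforms were quantified by RT-qPCR in cell lysates, with ΔCt against a housekeeper (GAPDH/GUSB/PPIA), then ΔΔCt vs DMSO, converted to 2^(−ΔΔCt) and percent response. K562 or A673 cells were exposed for 24 h to 11 concentrations (3-fold, top final 10 uM).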

[2] = tested on: MYB mRNA; assay: RT-qPCR splicing assay, MYB mRNA canonical (CJ) and alternative (AJ) junction; format: cell-based, human; settings: Homo sapiens; for AC50: MYB alternative junction mRNA, read-out: MYB AJ (increase in AJ mRNA, AC50)
In short: as §1

[3] = tested on: SMN2 mRNA; assay: RT-qPCR splicing assay, SMN2 mRNA; format: cell-based, human; settings: Homo sapiens, canonical junction qPCR panel, Table 4; read-out: SMN2 IC50 (decrease in CJ mRNA levels)
In short: as §1

[4] = tested on: Target C; assay: RT-qPCR canonical junction panel assay, Target C mRNA; format: cell-based; settings: Table 4, read-out: Target C IC50 (decrease in CJ mRNA levels)
In short: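 IC50 is the concentration giving 50% CJ decrease, from a 4-parameter logistic fit of percent response; response derived from ΔΔCt against housekeeper and DMSO over a fixed ΔCt window, with canonical exon-junction qPCR in compound-treated K562 or A673 cells.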

[5] = tested on: K562 cells; assay: Cell Titer Glo 2.0 cell viability (toxicity) assay, K562; settings: 500 cells/well, 72 hours
[6] = HTT canonical junction mRNA, RT-qPCR, read-out: HTT CJ (decrease in CJ mRNA levels, IC50)
[7] = canonical junction qPCR panel, Table 4, read-out: HTT IC50 (decrease in CJ mRNA levels)
[8] = MYB canonical junction mRNA, RT-qPCR, read-out: MYB CJ (decrease in CJ mRNA levels, IC50)
[9] = canonical junction qPCR panel, Table 4, read-out: MYB IC50 (decrease in CJ mRNA levels)

SMILES	IC50 [1, 6] [nM]	IC50 [1, 7] [nM]	IC50 [2, 8] [nM]	IC50 [2, 9] [nM]	IC50 [3] [nM]	IC50 [4] [nM]	AC50 ([1]; RT-qPCR) [nM]	AC50 ([2]; RT-qPCR) [nM]	Effect of Exemplary Compounds on Cell Viability, K562 [5]
CN[C@@H]1CCN(c2ccc3nc(-c4cc5cn(C)nc5c(C)c4O)ncc3n2)C1 (single isomer, unassigned) [Compound 368]	100 to 1000	100 to 1000	< 100	< 100	< 100	1000 to 10000	100 to 1000	< 100	A (A represents <100 nM)
CN[C@H]1CCN(c2ccc3nc(-c4cc5cn(C)nc5c(C)c4O)ncc3n2)C1 (single isomer, unassigned) [Compound 369]	100 to 1000	100 to 1000	100 to 1000	100 to 1000	< 100	1000 to 10000	100 to 1000	100 to 1000	B (B represents 100-1000 nM)
Cc1nc2c(C)c(O)c(-c3ccc4nc(N5CC[C@H](NC6(CF)CC6)C5)ccc4n3)cc2o1 (single isomer, unassigned) [Compound 378]	< 100	< 100	< 100	< 100	< 100	< 100	< 100	< 100	B (B represents 100-1000 nM)
Cc1nc2c(C)c(O)c(-c3ccc4nc(N5CC[C@@H](NC6(CF)CC6)C5)ccc4n3)cc2o1 (single isomer, unassigned) [Compound 379]	< 100	< 100	100 to 1000	100 to 1000	< 100	100 to 1000	100 to 1000	100 to 1000	B (B represents 100-1000 nM)

Second part, led by results:

IC50 [1, 6] [nM]	IC50 [1, 7] [nM]	IC50 [2, 8] [nM]	IC50 [2, 9] [nM]	IC50 [3] [nM]	IC50 [4] [nM]	SMILES	AC50 ([1]; RT-qPCR) [nM]	AC50 ([2]; RT-qPCR) [nM]	Effect of Exemplary Compounds on Cell Viability, K562 [5]
< 100	< 100	< 100	< 100	< 100	100 to 1000	C[C@H]1C[C@H](c2ccc3nc(-c4cc5cn(C)nc5c(F)c4O)ccc3n2)CCN1 (single isomer, unassigned) [Compound 356]	< 100	< 100	A (A represents <100 nM)
< 100	< 100	< 100	< 100	< 100	100 to 1000	Cc1c(O)c(-c2ccc3nc(N4CC[C@H](N[C@H]5C[C@H](F)C5)C4)ccc3n2)cc2cn(C)nc12 (single isomer, unassigned) [Compound 358]	< 100	< 100	B (B represents 100-1000 nM)
< 100	< 100	< 100	< 100	< 100	100 to 1000	Cn1cc2cc(-c3ccc4nc(N5CC[C@@H](N)C5)ccc4n3)c(O)c(F)c2n1 (single isomer, unassigned) [Compound 362]	< 100	< 100	A (A represents <100 nM)
< 100	< 100	< 100	< 100	< 100	< 100	Cc1nc2c(F)c(O)c(-c3ccc4nc(N5CC[C@H](NC6(CF)CC6)C5)ccc4n3)cc2o1 (single isomer, unassigned) [Compound 373]	< 100	< 100	A (A represents <100 nM)
